Laboratory results: patent publication US12690589B2, “Herbicidal compositions comprising pyroxasulfone” (BASF SE, priority 2024, dated 2026)

What was measured:
Experiment in all cases: Post-emergence application in field trials, herbicidal activity (damage scale 0 to 100%)
Format in all cases: in vivo
[1] = test system: Lolium multiflorum (LOLMU)
Method: (§1) In the examples below, using the method of S. R. Colby (1967) “Calculating synergistic and antagonistic responses of herbicide combinations”, Weeds 15, p. 22ff., the value E, which is expected if the activity of the individual active compounds is only additive, was calculated:
(§2) [formula] • wherein • X=percent activity using active herbicide A at an application rate a; • Y=percent activity using active herbicide B (e.g. pyroxasulfone) at an application rate b; • E=expected activity (in %) by A+B at application rates a+b.
(§3) For 3-component mixtures the synergistic response was calculated as described in: Ferry, Nancy; Stanley, Bruce H.; and Armel, Gregory (2005). “DESIGN AND ANALYSIS OF BIOLOGICAL ASSAYS OF MIXTURES,” Conference on Applied Statistics in Agriculture. https://doi.org/10.4148/2475-7772.1133. According to this publication, the Colby calculation can be generalized to a third mixing partner, Z, employing the following formula: […]
(§4) If the value found experimentally is higher than the value E calculated according to Colby, a synergistic effect is present.
(§5) On field test sites, natural weed infestation or seeded weeds were treated post-emergence of the weeds.
(§6) In the field trials, the weeds were treated as indicated below.
(§7) In the following experiments, the herbicidal activity for the individual herbicidal compositions (solo and mixture applications) was assessed at the indicated days after treatment (DAT). The assessments for the damage on undesired weeds caused by the composition was carried out using a scale from 0 to 100%, compared to the untreated control plants. Here, 0 means no damage and 100 means complete destruction of the plants.
(§8) Herbicide A-1 (342 g/l) and pyroxasulfone (500 g/l) were, together with addition of 0.25 v/v % MSO (methylated seed oil) as adjuvant, formulated in 200 l/ha water as distribution medium and sprayed with commercial flat fan nozzles.
(§9) Herbicide A-1 (342 g/l), pyroxasulfone (500 g/l) and trifludimoxazin (500 g/l) were, together with addition of 0.25 v/v % MSO (methylated seed oil) as adjuvant, formulated in 200 l/ha water as distribution medium and sprayed with commercial flat fan nozzles.
(§10) Herbicide A-1 (342 g/I), pyroxasulfone (500 g/l) and glyphosate-isopropylammonium (356 g/l) were, together with addition of 0.25 v/v % MSO (methylated seed oil) as adjuvant, formulated in 200 l/ha water as distribution medium and sprayed with commercial flat fan nozzles.
(§11) Herbicide A-1 (342 g/l), pyroxasulfone (500 g/l) and glufosinate-P-ammonium (211 g/l) were, together with addition of 0.25 v/v % MSO (methylated seed oil) as adjuvant, formulated in 200 l/ha water as distribution medium and sprayed with commercial flat fan nozzles.
(§12) Herbicide A-1 (342 g/l), pyroxasulfone (500 g/l) and 2,4-D-choline (456 g/l) were, together with addition of 0.25 v/v % MSO (methylated seed oil) as adjuvant, formulated in 200 l/ha water as distribution medium and sprayed with commercial flat fan nozzles.

Hordeum vulgare (HORVW) = test system: Hordeum vulgare (HORVW)
Method: as §1, §2, §3, §4, §5, §6, §7, §8, §9, §10, §11, §12

[2] = test system: Amaranthus retroflexus (AMARE)
Method: as §1, §2, §3, §4, §5, §6, §7, §8, §9, §10, §11, §12

[3] = test system: Setaria verticillata (SETVE)
Method: as §1, §2, §3, §4, §5, §6, §7, §8, §9, §10, §11, §12

## Cn1nc(C(F)(F)F)c(CS(=O)(=O)C2=NOC(C)(C)C2)c1OC(F)F [B, pyroxasulfone]
[1]; 28 DAT, stage 22-25, height 20-25 cm, g ai/ha A-1 12.5, B 70, C-12 252
  % Herbicidal activity: 10%
[1]; 28 DAT, stage 22-25, height 20-25 cm, g ai/ha A-1 18, B 70, C-12 252
  % Herbicidal activity: 10%
[1]; 28 DAT, stage 22-25, height 20-25 cm, g ai/ha A-1 18, B 90, C-12 252
  % Herbicidal activity: 10%
[1]; LOLMU, growth stage 22-25, height 20-25 cm, B 70 g ai/ha, 21 DAT, Table 4.4
  % Herbicidal activity: 20%
[1]; LOLMU, growth stage 22-25, height 20-25 cm, B 90 g ai/ha, 7 DAT, Table 4.2
  % Herbicidal activity: 10%
[1]; LOLMU, growth stage 22-25, height 20-25 cm, B 90 g ai/ha, 21 DAT, Table 4.4
  % Herbicidal activity: 10%
Hordeum vulgare (HORVW); 7 DAT, stage 23-29, height 20-25 cm, g ai/ha A-1 12.5, B 70, C-12 252
  % Herbicidal activity: 0%
Hordeum vulgare (HORVW); 7 DAT, stage 23-29, height 20-25 cm, g ai/ha A-1 18, B 70, C-12 252
  % Herbicidal activity: 0%
Hordeum vulgare (HORVW); 7 DAT, stage 23-29, height 20-25 cm, g ai/ha A-1 18, B 90, C-12 252
  % Herbicidal activity: 0%
Hordeum vulgare (HORVW); 21 DAT, stage 23-29, height 20-25 cm, g ai/ha A-1 12.5, B 70, C-12 252
  % Herbicidal activity: 0%
Hordeum vulgare (HORVW); 21 DAT, stage 23-29, height 20-25 cm, g ai/ha A-1 18, B 70, C-12 252
  % Herbicidal activity: 0%
Hordeum vulgare (HORVW); 21 DAT, stage 23-29, height 20-25 cm, g ai/ha A-1 18, B 90, C-12 252
  % Herbicidal activity: 0%
Hordeum vulgare (HORVW); 28 DAT, stage 23-29, height 20-25 cm, g ai/ha A-1 12.5, B 70, C-12 252
  % Herbicidal activity: 0%
Hordeum vulgare (HORVW); 28 DAT, stage 23-29, height 20-25 cm, g ai/ha A-1 18, B 70, C-12 252
  % Herbicidal activity: 0%
Hordeum vulgare (HORVW); 28 DAT, stage 23-29, height 20-25 cm, g ai/ha A-1 18, B 90, C-12 252
  % Herbicidal activity: 0%
Hordeum vulgare (HORVW); HORVW, growth stage 23-29, height 20-25 cm, B 70 g ai/ha, 7 DAT, Table 4.2
  % Herbicidal activity: 0%
Hordeum vulgare (HORVW); HORVW, growth stage 23-29, height 20-25 cm, B 70 g ai/ha, 21 DAT, Table 4.4
  % Herbicidal activity: 0%
Hordeum vulgare (HORVW); HORVW, growth stage 23-29, height 20-25 cm, B 70 g ai/ha, 28 DAT, Table 4.5
  % Herbicidal activity: 0%
Hordeum vulgare (HORVW); HORVW, growth stage 23-29, height 20-25 cm, B 90 g ai/ha, 7 DAT, Table 4.2
  % Herbicidal activity: 0%
Hordeum vulgare (HORVW); HORVW, growth stage 23-29, height 20-25 cm, B 90 g ai/ha, 21 DAT, Table 4.4
  % Herbicidal activity: 0%
Hordeum vulgare (HORVW); HORVW, growth stage 23-29, height 20-25 cm, B 90 g ai/ha, 28 DAT, Table 4.5
  % Herbicidal activity: 0%
[2]; 7 DAT, stage 31-49, height 10-12 cm, g ai/ha A-1 12.5, B 70, C-4 12.5
  % Herbicidal activity: 0%
[2]; 21 DAT, stage 31-49, height 10-12 cm, g ai/ha A-1 18, B 70, C-12 252
  % Herbicidal activity: 0%
[2]; 21 DAT, stage 31-49, height 10-12 cm, g ai/ha A-1 18, B 90, C-12 252
  % Herbicidal activity: 0%
[2]; 42 DAT, stage 31-49, height 10-12 cm, g ai/ha A-1 12.5, B 70, C-4 12.5
  % Herbicidal activity: 0%
[2]; 42 DAT, stage 31-49, height 10-12 cm, g ai/ha A-1 18, B 70
  % Herbicidal activity: 0%
[2]; 42 DAT, stage 31-49, height 10-12 cm, g ai/ha A-1 18, B 70, C-4 12.5
  % Herbicidal activity: 0%
[2]; 42 DAT, stage 31-49, height 10-12 cm, g ai/ha A-1 18, B 90, C-4 12.5
  % Herbicidal activity: 0%
[2]; AMARE, growth stage 31-49, height 10-12 cm, B 70 g ai/ha, 7 DAT, Table 4.1
  % Herbicidal activity: 0%
[2]; AMARE, growth stage 31-49, height 10-12 cm, B 70 g ai/ha, 21 DAT, Table 4.3
  % Herbicidal activity: 0%
[2]; AMARE, growth stage 31-49, height 10-12 cm, B 90 g ai/ha, 7 DAT, Table 4.1
  % Herbicidal activity: 0%
[2]; AMARE, growth stage 31-49, height 10-12 cm, B 90 g ai/ha, 21 DAT, Table 4.3
  % Herbicidal activity: 0%
[3]; 7 DAT, stage 21-23, height 8-16 cm, g ai/ha A-1 18, B 70, C-8 840
  % Herbicidal activity: 0%
[3]; 7 DAT, stage 21-23, height 8-16 cm, g ai/ha A-1 18, B 70, C-12 252
  % Herbicidal activity: 0%
[3]; 7 DAT, stage 21-23, height 8-16 cm, g ai/ha A-1 18, B 90, C-4 12.5
  % Herbicidal activity: 0%
[3]; 7 DAT, stage 21-23, height 8-16 cm, g ai/ha A-1 18, B 90, C-8 840
  % Herbicidal activity: 0%
[3]; 7 DAT, stage 21-23, height 8-16 cm, g ai/ha A-1 18, B 90, C-12 252
  % Herbicidal activity: 0%
[3]; 21 DAT, stage 21-23, height 8-16 cm, g ai/ha A-1 18, B 90, C-12 252
  % Herbicidal activity: 0%
[3]; 42 DAT, stage 21-23, height 8-16 cm, g ai/ha A-1 12.5, B 70
  % Herbicidal activity: 0%
[3]; 42 DAT, stage 21-23, height 8-16 cm, g ai/ha A-1 12.5, B 70, C-12 252
  % Herbicidal activity: 0%
[3]; 42 DAT, stage 21-23, height 8-16 cm, g ai/ha A-1 18, B 70
  % Herbicidal activity: 0%
[3]; 42 DAT, stage 21-23, height 8-16 cm, g ai/ha A-1 18, B 90, C-12 252
  % Herbicidal activity: 0%
[3]; SETVE, growth stage 21-23, height 8-16 cm, B 70 g ai/ha, 7 DAT, Table 4.1
  % Herbicidal activity: 0%
[3]; SETVE, growth stage 21-23, height 8-16 cm, B 70 g ai/ha, 21 DAT, Table 4.3
  % Herbicidal activity: 0%
[3]; SETVE, growth stage 21-23, height 8-16 cm, B 90 g ai/ha, 7 DAT, Table 4.1
  % Herbicidal activity: 0%
[3]; SETVE, growth stage 21-23, height 8-16 cm, B 90 g ai/ha, 21 DAT, Table 4.3
  % Herbicidal activity: 0%
[3]; Table 8.1, 7 DAT, stage 21-23, height 8-16 cm, g ai/ha A-1 18, B 70, C-12 1066
  % Herbicidal activity: 0%
[3]; Table 8.2, 21 DAT, stage 21-23, height 8-16 cm, g ai/ha A-1 12.5, B 70, C-12 1066
  % Herbicidal activity: 0%
[3]; Table 8.4, 42 DAT, stage 21-23, height 8-16 cm, g ai/ha A-1 12.5, B 70, C-12 1066
  % Herbicidal activity: 0%
